In the supplement of paper PMC6965134:
± gives the standard deviation of the averaged measurements.

Assay: TIMS collisional cross section (CCS, N2) of the lipid ion; higher = larger ion cross section
Settings: ionization mode: positive, one isomer drawn

TIMS collisional cross section (sample type: Liver) [Å²]	TIMS collisional cross section (sample type: HeLa) [Å²]	TIMS collisional cross section (sample type: plasma) [Å²]	Structure (SMILES)
303.1	–	–	CCCCC/C=C\CCCCCCCC(=O)O[C@H](COC(=O)CCCCCCCCCCCCC)COC(=O)CCCCCCCCCCCCCCC [TG 14:0_15:1_16:0] (ion (formula + adduct): [C48H90O6+NH4] 1+)
219	–	–	C1C[C@H](O)C(CO)[C@]2([H])CCC3=C([C@]21C)CC[C@]1(C)[C@@]([H])([C@H](C)CC/C=C(/C)\C)CC[C@]13[H] (stereo not given in full) [zymosterol intermediate 1a] (ion (formula + adduct): [C28H46O2+H] 1+)
195.7	–	197.1	OC[C@]([H])(OC(CCC/C=C\C/C=C\C/C=C\C/C=C\CCCCC)=O)CO [MG 0:0_20:4_0:0] (ion (formula + adduct): [C23H38O4+H] 1+)
304.1	304.2	–	CCCCCCCCCCCCC/C=C/[C@@H](O)[C@H](CO[C@@H]1O[C@H](CO)[C@@H](O)C(O)C1O)NC(=O)CCCCCCCCCCCCCCCCCCCCCCC (stereo not given in full) [GlcCer d18:1_24:0@] (ion (formula + adduct): [C48H93NO8+H] 1+)
–	298.6	–	CC/C=C\C/C=C\C/C=C\C/C=C\C/C=C\C/C=C\CCC(=O)OC[C@H](COP(=O)([O-])OCC[N+](C)(C)C)OC(=O)CC/C=C\C/C=C\C/C=C\C/C=C\C/C=C\C/C=C\CC [PC 22:6_22:6] (ion (formula + adduct): [C52H80NO8P+H] 1+)
295.6	–	–	CC/C=C\C/C=C\C/C=C\C/C=C\C/C=C\C/C=C\CCC(=O)O[C@H](COC(=O)CCCCCCCCC/C=C\CCCCCC)COP(=O)([O-])OCC[N+](C)(C)C [PC 18:1_22:6] (ion (formula + adduct): [C48H82NO8P+H] 1+)
305.3	305.4 ± 0.14	305.5	CCCCCCCC/C=C\CCCCCCCCCCCCCC(=O)N[C@@H](COP(=O)([O-])OCC[N+](C)(C)C)[C@H](O)/C=C/CCCCCCCCCCCCC [SM d18:1_24:1@] (ion (formula + adduct): [C47H93N2O6P+H] 1+)
305.4	–	–	CCCC/C=C\CCCCCCCC(=O)OC[C@H](COC(=O)CCCCCCC/C=C\CCCCCCC)OC(=O)CCCCCCC/C=C\CCCCCC [TG 14:1_16:1_17:1] (ion (formula + adduct): [C50H90O6+NH4] 1+)
–	304.8	–	CCCCCCCC/C=C\CCCCCCCC(=O)OC[C@H](COP(=O)([O-])OCC[N+](C)(C)C)OC(=O)CCCCCCCCC/C=C\CCCCCCCCCC [PC 18:1_22:1@] (ion (formula + adduct): [C48H92NO8P+H] 1+)
–	–	296.5	CC/C=C\C/C=C\C/C=C\C/C=C\C/C=C\C/C=C\CCC(=O)O[C@H](COC(=O)CCCCCCCCC/C=C\CCCCCC)COP(=O)([O-])OCC[N+](C)(C)C [PC 18:1_22:6@] (ion (formula + adduct): [C48H82NO8P+H] 1+)
276.7	–	–	CC/C=C\C/C=C\C/C=C\C/C=C\C/C=C\C/C=C\CCC(=O)O[C@H](COC(=O)CCCC/C=C\C/C=C\C/C=C\CCCCC)COP(=O)(O)OCCN [PE 18:3_22:6] (ion (formula + adduct): [C45H72NO8P+H] 1+)
–	–	245.9	CCCCCCCCCCCCCCCCCCCCOC[C@@H](O)COP(=O)([O-])OCC[N+](C)(C)C [LPC O- 20:0] (ion (formula + adduct): [C28H60NO6P+H] 1+)
283	278.2	280.9 ± 3.8	CCCCCCCC/C=C\CCCCCCCCCCCCCC(=O)N[C@@H](CO)[C@H](O)/C=C/CCCCCCCCCCCCC [Cer d18:1_24:1@] (ion (formula + adduct): [C42H81NO3+H] 1+)
–	232.9	233.2	CCCCC/C=C\C/C=C\C/C=C\C/C=C\C/C=C\CCC(=O)OC[C@@H](O)COP(=O)([O-])OCC[N+](C)(C)C [LPC 22:5] (ion (formula + adduct): [C30H52NO7P+H] 1+)
–	258.1	–	CCCCCC/C=C\CCCCCCCC(=O)OC[C@H](CO)OC(=O)CCCCCCC/C=C\CCCCCCCC [DG 16:1_18:1_0:0] (ion (formula + adduct): [C37H68O5+H] 1+)
–	287.7	–	CCCCCCC/C=C\CCCCCCCC(=O)O[C@H](COCCCCCCCCCCCCCCCC)COP(=O)([O-])OCC[N+](C)(C)C [PC O- 16:0@_17:1] (ion (formula + adduct): [C41H82NO7P+H] 1+)
272.6	272.4	–	CCCCC/C=C\C/C=C\C/C=C\C/C=C\CCCC(=O)OC[C@H](COP(=O)(O)OCCN)OC(=O)CCCCCCC/C=C\CCCCCC [PE 20:4_16:1] (ion (formula + adduct): [C41H72NO8P+H] 1+)
238.2	238.4	–	CCCCCCCCCCCCCCCCCCOC[C@@H](O)COP(=O)([O-])OCC[N+](C)(C)C [LPC O- 18:0] (ion (formula + adduct): [C26H56NO6P+H] 1+)
278	–	–	CCCCC/C=C\C/C=C\CCCCCCCC(=O)O[C@H](CO/C=C\CCCCCCCCCCCCCCCC)COP(=O)(O)OCCN [PE P- 18:0@_18:2] (ion (formula + adduct): [C41H78NO7P+H] 1+)

Continued, molecule first:

Structure (SMILES)	TIMS collisional cross section (sample type: Liver) [Å²]	TIMS collisional cross section (sample type: HeLa) [Å²]	TIMS collisional cross section (sample type: plasma) [Å²]
C(OC(=O)CCCCCCC/C=C\C/C=C\CCCCC)[C@]([H])(OC(CCCCCCC/C=C\C/C=C\CCCCC)=O)COC(CCCCCCC/C=C\C/C=C\CCCCC)=O [TG 18:2_18:2_18:2] (ion (formula + adduct): [C57H98O6+NH4] 1+)	321.8	–	–
CCCCCCCCCCCCCCCC(=O)OC[C@@H](O)COP(=O)(O)OCCN [LPE 16:0] (ion (formula + adduct): [C21H44NO7P+H] 1+)	215.9 ± 2.1	214.5	215.7 ± 2.5
CCCCCCCCCCCCCCC(=O)OC[C@@H](COC(=O)CCCCCCCCCCC)OC(=O)CCCCCCCCCCCCC [TG 12:0_14:0_15:0] (ion (formula + adduct): [C44H84O6+NH4] 1+)	–	291.9	–
CCCCCCCCCCCCCCCCCCCCCC(=O)OC[C@@H](COC(=O)CCCCCCCCCCCCCCC)OC(=O)CCCCCCCCCCCCCCCCCCC [TG 16:0_20:0_22:0] (ion (formula + adduct): [C61H118O6+NH4] 1+)	–	344.3	343.5
CCCCCCCC/C=C\CCCCCCCC(=O)OC[C@H](COC(=O)CCCCCCCCCCCCCCCCCCCCC)OC(=O)CCCCCCCCCCCCCCCCCCC [TG 18:1_20:0_22:0] (ion (formula + adduct): [C63H120O6+NH4] 1+)	–	346.3	347.4
CCCCC/C=C\C/C=C\CCCCCCCC(=O)OC[C@H](COC(=O)CCCCCCC/C=C\CCCCCCCCC)OC(=O)CCCCCCC/C=C\C/C=C\CCCCC [TG 18:2_18:2_19:1] (ion (formula + adduct): [C58H102O6+NH4] 1+)	325.1	–	–
CCCCCCCC/C=C\CCCCCCCC(=O)O[C@H](COC(=O)CCCCCCCCCCCCCCCC)COC(=O)CCCCCCCCCCCCCCCCCCCCC [TG 17:0_18:1_22:0] (ion (formula + adduct): [C60H114O6+NH4] 1+)	338.8	–	338.7
CCCCCCCC/C=C\CCCCCCCC(=O)O[C@H](COC(=O)CCCCCCCCCCCCCCCCC)COP(=O)(O)OCCN [PE 18:0_18:1] (ion (formula + adduct): [C41H80NO8P+H] 1+)	–	282.2	–
CCCCCC/C=C\CCCCCCCC(=O)O[C@@H](COC(=O)CCCCCCC/C=C\CCCCCCCC)COC(=O)CCCCCCCCCCCCCCC [TG 16:0_16:1_18:1] (ion (formula + adduct): [C53H98O6+NH4] 1+)	315.95 ± 0.53	315.9	315.8 ± 0.27
CC/C=C\C/C=C\C/C=C\C/C=C\C/C=C\CCCCCC(=O)OC[C@@H](COC(=O)CCCCCCCCCCCCCCC)OC(=O)CCCCCCCCCCCCCCCCC [TG 16:0_18:0_22:5] (ion (formula + adduct): [C59H104O6+NH4] 1+)	–	330.6	–
CCCCCCCCCCCCCCCCCCCCCC(=O)OC[C@@H](COC(=O)CCCCCCCCCCCCCCCCC)OC(=O)CCCCCCCCCCCCCCCCCCCC [TG 18:0_21:0_22:0] (ion (formula + adduct): [C64H124O6+NH4] 1+)	351.7	–	352.7
CCCCCCCC/C=C\CCCCCCCC(=O)OC[C@@H](COC(=O)CCCCCCCCCCCCCCC)OC(=O)CCCCCCC/C=C\CCCCCCCC [TG 16:0_18:1_18:1] (ion (formula + adduct): [C55H102O6+NH4] 1+)	322.4	322	322.45 ± 0.21
CC/C=C\C/C=C\C/C=C\C/C=C\C/C=C\CCCCCC(=O)OC[C@@H](COC(=O)CCCCCCC/C=C\CCCCCC)OC(=O)CCCCCCC/C=C\CCCCCCCC [TG 16:1_18:1_22:5] (ion (formula + adduct): [C59H100O6+NH4] 1+)	–	325.9	327.7
CCCCCC/C=C\CCCCCCCC(=O)OC[C@H](COC(=O)CCCCCCCCCCCCCCCCC)OC(=O)CCCCCCC/C=C\CCCCCCC [TG 16:1_17:1_18:0] (ion (formula + adduct): [C54H100O6+NH4] 1+)	–	318.7	–
CCCCC/C=C\C/C=C\C/C=C\CCCCCCC(=O)OC[C@@H](COC(=O)CCCCCCC/C=C\CCCCCCCC)OC(=O)CCCCCCCCC/C=C\CCCCCCCC [TG 18:1_20:1_20:3] (ion (formula + adduct): [C61H108O6+NH4] 1+)	–	336.4	–
CCCCCCCCCCCCCCCCCC(=O)OC[C@@H](O)COP(=O)(O)OCCN [LPE 18:0] (ion (formula + adduct): [C23H48NO7P+H] 1+)	–	–	221.8
